According to patent publication US20240366731A1, “ORAL ALGAL OIL BASED GASTRO-INTESTINAL TRACT PERMEABLE PEPTIDE COMPOSITION” (CELAGENEX RESEARCH (INDIA) PVT. LTD., priority 2021, published 2024):
“And” between values parts separate entries of the source, which are not always exact repeats. Equal values may be shown once.

Test: Study of Composition-3 vs Januvia (Sitagliptin) vs Placebo in T2D adult patients with inadequate glycemic control, 04-week treatment
Assay type: in vivo, human
Protocol: A study of Composition-3 vs Januvia (Sitagliptin) vs Placebo in adult patients with inadequate glycemic control • 1. Composition-3—Oral insulin—8 mg • 2. Reference—Januvia (Sitagliptin)—100 mg • 3. Placebo
The pivotal study was involved 36 patients divided in to 3 groups of 12 each randomized to 1:1:1 into three cohorts dosed with 8 mg of Composition-3at night, Januvia 100 mg (Sitagliptin) at night and placebo at night.
Patient population-T2D adult patients above age of 21 years with inadequate glycemic control who were managing their condition with diet and metformin monotherapy.
• HbA1c ≥7.5% on metformin ≥500 mg daily • At time of randomization, patients were treated for their diabetes by diet, exercise, and metformin (≥500 mg/day; any type and regimen). […] A negative urine pregnancy test was obtained during Visit 2 and at Visit 4 (prior to randomization). • Males and females of childbearing potential used two methods of contraception (double barrier method), one of which must be an acceptable barrier method from the time of screening to the last study visit
• Patients who meet any of the following criteria was not eligible for this study. • Presence of any clinically significant endocrine disease according to the Investigator (euthyroid patients on replacement therapy was included if the dosage of thyroxine is stable for at least six weeks prior to Screening Visit). • Clinical diagnosis of Type 1 diabetes. • Presence or history of cancer within the past five years except for adequately treated localized basal cell skin cancer or in situ uterine cervical cancer. • Laboratory abnormalities at screening including: • 1. C-peptide <1.0 ng/mL. • 2. Positive pregnancy test in females of childbearing potential (at screening and start of run-in period). • 3. Abnormal serum thyrotropin (TSH) levels >1.5 times the upper limit of normal. • 4. Positive test for hepatitis B surface antigen and/or hepatitis C antibody. • 5. Positive test for HIV. • 6. Serum Cr >1.4 mg/dl in males, >1.3 mg/dl in females. • 7. Any relevant abnormality interfering with the efficacy or the safety assessments during study drug administration. • Use of the following medications: • 1. History of use of insulin for greater than one week in the last six months and any use of insulin in the last six weeks prior to randomization. • 2. Administration of anti-diabetic drugs other than metformin within four weeks prior to randomization visit. Administration of thyroid preparations or thyroxine within six weeks prior to screening visit. […] (Note: Alcohol abuse includes heavy alcohol intake as defined by >3 drinks per day or >14 drinks per week, or binge drinking). • Elevated liver enzymes (alanine transaminase (ALT), […], alkaline phosphatase) greater than two times the upper limit of normal at screening. • Very high triglyceride level (>500 mg/dL) at screening. • Any clinically significant electrocardiogram (ECG) abnormality at screening or cardiovascular disease. Clinically significant cardiovascular disease will include: • 1. History of stroke, transient ischemic attack, or myocardial infarction within six months prior to screening, • 2. History of or currently have New York Heart Associate Class II-IV heart failure prior to screening, or • 3. Uncontrolled hypertension defined as blood pressure ≥160 mmHg (systolic) or ≥100 mmHg (diastolic) at screening.
• The primary endpoint of the study was to compare the efficacy of Composition-3 to Sitagliptin & placebo in improving glycaemic control as assessed by A1c over a 04-week treatment period, with a secondary endpoint of comparing Composition-3 to Sitagliptin & placebo in change from baseline in FPG at week 04 • 1. Change from Baseline in Haemoglobin A1c (A1C) at Week 04 [Time Frame: Baseline and Week 04] A1C was measured as the percentage of glycosylated haemoglobin. Change in A1C following 04 weeks of therapy (i.e., A1C at Week 04 minus A1C at baseline) • 2. […]

## N[C@@H](CC(=O)N1CCn2c(nnc2C(F)(F)F)C1)Cc1cc(F)c(F)cc1F [Sitagliptin]
Group mean n = 12, Week 04
  Mean A1c (HbA1c) % week 04: 6.66%
  Mean FPG (mg/dl) week 04: 160.53 mg/dL
Group mean n = 12, Week 04 vs baseline
  % Improvement A1c (HbA1c): 14.7%
Group mean n = 12, baseline
  Mean A1c (HbA1c) % baseline: 7.81%
  Mean FPG (mg/dl) baseline: 200.68 mg/dL
Individual patient, Week 04, before breakfast
  FPG (mg/dl) Week 04: 155.06 mg/dl and 159.18 mg/dl and 156.1 mg/dl and 150.54 mg/dl and 158.1 mg/dl and 166.66 mg/dl and 157.66 mg/dl and 164.78 mg/dl (2×) and 182.58 mg/dl and 152.06 mg/dl and 158.54 mg/dl
Individual patient, Week 04, dosed orally at night
  A1c (HbA1c) % Week 04: 6.6% (4×) and 6.8% (3×) and 6.5% (2×) and 6.4% (2×) and 7.3%
Individual patient, baseline, T2D patients on metformin
  A1c (HbA1c) % Baseline: 7.9% (2×) and 8% and 7.6% (2×) and 7.7% (3×) and 7.8% (3×) and 8.2%
Individual patient, baseline, before breakfast
  FPG (mg/dl) Baseline: 203.94 mg/dl (2×) and 207.5 mg/dl and 193.26 mg/dl (2×) and 196.82 mg/dl (3×) and 200.38 mg/dl (3×) and 214.62 mg/dl
